Data taken from US20170107179A1 (Tetraphase Pharmaceuticals, Inc., priority 2010, published 2017).

System: Gram-negative and Gram-positive organisms (clinical isolates)
Assay: Broth microdilution MIC against clinical isolates (CLSI M7-A8), Table 9
Type: cell-based

SMILES: CN(C)c1cc(NC(=O)CNC(C)(C)C)c(O)c2c1C[C@H]1C[C@H]3[C@H](N(C)C)C(O)=C(C(N)=O)C(=O)[C@@]3(O)C(O)=C1C2=O [Tigecycline, tigecycline]
- MICs against tetracycline resistant isolates relative to tetracycline susceptible isolates: not notably altered
